Data on 1 molecule can be found in patent US11033640B2, “Enteric CT contrast material based on low-z atoms” (priority 2013, dated 2021).

In the data set the test system is rabbit.

As to `[Mg+2].[OH-].[OH-]` [Mg(OH)2, magnesium hydroxide], the Toxicity or discomfort entry (rabbit model, high-concentration suspension diluted to 400 HU) is “without observing obvious toxicity or discomfort”. Also, the “Differentiation from iodinated intravascular contrast, two-material decomposition” value (rabbit, dual energy CT) is listed as “without interfering signal from the intravascular iodinated contrast material”.
